Activity calls are given as the source filed them. The calls are words filed in the database; no cut-off is given here.
Columns and labels:
[1] = tested on: PC-12; assay: Reversal of H2O2-induced calcium overload in rat PC12 cells assessed as mean fluorescence intensity at 5 uM after 48 hrs by Fluo-3/AM probe based flow cytometry (reference value: 454014); assay type: functional
[2] = tested on: Mus musculus; assay: Acute toxicity in mouse assessed as abnormal changes in water or food consumption at 677 to 2000 mg/kg, po measured continuously for first 4 hrs and intermittently for next 24 hrs and occasionally for 14 days; assay type: organism-based; conditions: in vivo
[3] = tested on: PC-12; assay: Cytotoxicity against rat PC12 cells assessed as decrease in cell viability at 20 uM after 24 hrs by MTT assay; assay type: cell-based; conditions: pc-12, 24 h
[4] = tested on: PC-12; assay: Reversal of H2O2-induced calcium overload in rat PC12 cells assessed as mean fluorescence intensity at 2.5 uM after 48 hrs by Fluo-3/AM probe based flow cytometry (reference value: 454014); assay type: functional
[5] = tested on: PC-12; assay: Neuroprotective activity against H2O2-induced apoptosis in rat PC12 cells assessed as necrotic cells at 10 uM after 24 hrs by Annexin V-FITC/propidium iodide staining-based flow cytometry (reference value: 4.9%); assay type: functional
[6] = target: Cholinesterase (Homo sapiens, UniProt P06276); assay: Inhibition of human serum BuChE at 100 uM using butyrylthiocholine iodide as substrate incubated for 5 mins followed by substrate addition measured after 180 secs by Ellman's method relative to control
[7] = tested on: Mus musculus; assay: Reversal of scopolamine-induced memory impairment in ICR mouse assessed as increase in step-through latency time administered orally for 10 consecutive days and 60 mins prior to training trial followed by scopolamine challenge at 30 mins post dose measured 24 hrs after training trial by passive avoidance test; assay type: functional, organism-based
[8] = tested on: PC-12; assay: Neuroprotective activity against H2O2-induced apoptosis in rat PC12 cells assessed as late apoptotic cells at 10 uM after 24 hrs by Annexin V-FITC/propidium iodide staining-based flow cytometry (reference value: 25.3%); assay type: functional
[9] = tested on: Mus musculus; assay: Acute toxicity in mouse assessed as abnormal changes in lung at 2000 mg/kg, po measured continuously for first 4 hrs and intermittently for next 24 hrs and occasionally for 14 days by hematoxylin and eosin staining based microscopic method; assay type: organism-based; conditions: in vivo
[10] = target: Acetylcholinesterase (Homo sapiens, UniProt P22303); assay: Mixed-type inhibition of human AChE using acetylthiocholine chloride as substrate incubated for 5 mins followed by substrate addition by Lineweaver-Burk plot analysis
[11] = target: T1, Amine oxidase [flavin-containing] A (Homo sapiens, UniProt P21397); assay: Inhibition of human MAO-A using p-tyramine as substrate incubated for 15 mins followed by substrate addition measured for 20 mins by fluorescence assay
T1 sequence (P21397 whole entry): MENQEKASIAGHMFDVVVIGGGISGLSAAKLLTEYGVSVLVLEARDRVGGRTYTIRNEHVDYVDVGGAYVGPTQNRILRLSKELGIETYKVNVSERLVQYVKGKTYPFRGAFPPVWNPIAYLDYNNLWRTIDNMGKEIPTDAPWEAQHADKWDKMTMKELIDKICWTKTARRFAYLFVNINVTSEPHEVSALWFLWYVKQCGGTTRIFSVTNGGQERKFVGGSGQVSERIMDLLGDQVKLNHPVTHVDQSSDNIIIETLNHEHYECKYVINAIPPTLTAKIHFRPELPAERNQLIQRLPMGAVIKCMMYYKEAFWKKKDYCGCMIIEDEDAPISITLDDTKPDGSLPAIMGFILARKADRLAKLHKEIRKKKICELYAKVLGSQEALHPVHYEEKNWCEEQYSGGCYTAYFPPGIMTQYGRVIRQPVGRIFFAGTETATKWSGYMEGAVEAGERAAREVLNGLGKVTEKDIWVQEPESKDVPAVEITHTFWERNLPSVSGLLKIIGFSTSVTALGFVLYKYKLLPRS

[12] = tested on: PC-12; assay: Neuroprotective activity against H2O2-induced apoptosis in rat PC12 cells assessed as necrotic cells at 5 uM after 24 hrs by Annexin V-FITC/propidium iodide staining-based flow cytometry (reference value: 4.9%); assay type: functional
[13] = tested on: BV-2; assay: Inhibition of LPS-induced intracellular ROS production in mouse BV2 cells assessed as mean fluorescence intensity at 10 uM incubated with LPS for 18 hrs followed by compound addition measured after 36 hrs by DCFH-DA probe based flow cytometry (reference value: 493530); assay type: functional
[14] = tested on: BV-2; assay: Antineuroinflammatory activity in mouse BV2 cells assessed as inhibition of LPS-induced NO production at 10 to 30 uM after 24 hrs by Griess assay; assay type: functional, cell-based
[15] = tested on: PC-12; assay: Neuroprotective activity against H2O2-induced apoptosis in rat PC12 cells assessed as early apoptotic cells at 5 uM after 24 hrs by Annexin V-FITC/propidium iodide staining-based flow cytometry (reference value: 1.4%); assay type: functional
[16] = tested on: Mus musculus; assay: Acute toxicity in mouse assessed as body weight change at 677 to 2000 mg/kg, po measured continuously for first 4 hrs and intermittently for next 24 hrs and occasionally for 14 days; assay type: organism-based; conditions: in vivo
[17] = tested on: PC-12; assay: Neuroprotective activity against H2O2-induced apoptosis in rat PC12 cells assessed as early apoptotic cells at 2.5 uM after 24 hrs by Annexin V-FITC/propidium iodide staining-based flow cytometry (reference value: 1.4%); assay type: functional
[18] = tested on: Mus musculus; assay: Acute toxicity in mouse assessed as abnormal changes in heart at 2000 mg/kg, po measured continuously for first 4 hrs and intermittently for next 24 hrs and occasionally for 14 days by hematoxylin and eosin staining based microscopic method; assay type: organism-based; conditions: in vivo
[19] = Half life in Sprague-Dawley rat liver microsomes in presence of NADPH by UPLC/MS analysis; conditions: liver microsomes
[20] = tested on: Mus musculus; assay: Toxicity in ICR mouse assessed as change in body weight at 5 to 10 mg/kg, po administered for 10 consecutive days; assay type: organism-based; conditions: in vivo
[21] = tested on: Mus musculus; assay: Acute toxicity in mouse assessed as abnormal changes in liver at 2000 mg/kg, po measured continuously for first 4 hrs and intermittently for next 24 hrs and occasionally for 14 days by hematoxylin and eosin staining based microscopic method; assay type: organism-based; conditions: in vivo
[22] = tested on: PC-12; assay: Neuroprotective activity against H2O2-induced apoptosis in rat PC12 cells assessed as early apoptotic cells at 10 uM after 24 hrs by Annexin V-FITC/propidium iodide staining-based flow cytometry (reference value: 1.4%); assay type: functional
[23] = target: Acetylcholinesterase (Electrophorus electricus, UniProt O42275); assay: Inhibition of electric eel AChE using acetylthiocholine chloride as substrate incubated for 5 mins followed by substrate addition measured after 180 secs by Ellman's method
Chain of Acetylcholinesterase (Electrophorus electricus, UniProt O42275) (O42275 whole entry): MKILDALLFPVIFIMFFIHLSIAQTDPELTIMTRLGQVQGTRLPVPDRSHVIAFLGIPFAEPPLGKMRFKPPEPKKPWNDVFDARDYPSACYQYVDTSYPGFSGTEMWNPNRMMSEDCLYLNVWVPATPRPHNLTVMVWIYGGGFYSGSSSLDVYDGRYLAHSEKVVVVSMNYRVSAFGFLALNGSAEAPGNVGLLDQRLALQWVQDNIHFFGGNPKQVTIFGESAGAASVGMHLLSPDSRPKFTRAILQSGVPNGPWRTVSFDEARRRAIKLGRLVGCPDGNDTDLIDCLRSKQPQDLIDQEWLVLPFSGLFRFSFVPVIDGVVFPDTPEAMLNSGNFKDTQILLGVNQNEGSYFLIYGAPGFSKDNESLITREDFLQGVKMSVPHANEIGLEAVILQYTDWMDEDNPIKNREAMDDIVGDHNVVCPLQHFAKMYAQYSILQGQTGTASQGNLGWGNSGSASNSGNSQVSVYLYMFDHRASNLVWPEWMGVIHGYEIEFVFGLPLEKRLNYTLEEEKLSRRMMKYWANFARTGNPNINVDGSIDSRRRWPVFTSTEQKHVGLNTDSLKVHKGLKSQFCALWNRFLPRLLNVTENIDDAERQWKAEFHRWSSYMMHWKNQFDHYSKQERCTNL

Chain of Acetylcholinesterase (Homo sapiens, UniProt P22303) (P22303 whole entry): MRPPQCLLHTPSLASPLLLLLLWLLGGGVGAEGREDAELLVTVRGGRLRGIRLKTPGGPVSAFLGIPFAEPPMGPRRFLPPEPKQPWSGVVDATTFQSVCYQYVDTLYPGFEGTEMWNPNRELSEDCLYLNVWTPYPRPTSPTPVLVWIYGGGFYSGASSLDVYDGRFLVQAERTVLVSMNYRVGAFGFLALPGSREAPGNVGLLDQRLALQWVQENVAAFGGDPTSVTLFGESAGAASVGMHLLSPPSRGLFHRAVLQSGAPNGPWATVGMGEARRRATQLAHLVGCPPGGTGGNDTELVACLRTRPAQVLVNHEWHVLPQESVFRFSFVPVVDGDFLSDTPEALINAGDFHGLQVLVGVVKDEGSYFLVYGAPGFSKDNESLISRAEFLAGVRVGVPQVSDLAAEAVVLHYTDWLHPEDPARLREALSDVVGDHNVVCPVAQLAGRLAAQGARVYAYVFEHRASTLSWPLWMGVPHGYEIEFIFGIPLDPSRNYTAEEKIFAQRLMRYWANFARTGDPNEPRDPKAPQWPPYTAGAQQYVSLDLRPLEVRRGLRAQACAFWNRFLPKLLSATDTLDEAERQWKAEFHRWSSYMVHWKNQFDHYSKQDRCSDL
Chain of Cholinesterase (P06276 whole entry): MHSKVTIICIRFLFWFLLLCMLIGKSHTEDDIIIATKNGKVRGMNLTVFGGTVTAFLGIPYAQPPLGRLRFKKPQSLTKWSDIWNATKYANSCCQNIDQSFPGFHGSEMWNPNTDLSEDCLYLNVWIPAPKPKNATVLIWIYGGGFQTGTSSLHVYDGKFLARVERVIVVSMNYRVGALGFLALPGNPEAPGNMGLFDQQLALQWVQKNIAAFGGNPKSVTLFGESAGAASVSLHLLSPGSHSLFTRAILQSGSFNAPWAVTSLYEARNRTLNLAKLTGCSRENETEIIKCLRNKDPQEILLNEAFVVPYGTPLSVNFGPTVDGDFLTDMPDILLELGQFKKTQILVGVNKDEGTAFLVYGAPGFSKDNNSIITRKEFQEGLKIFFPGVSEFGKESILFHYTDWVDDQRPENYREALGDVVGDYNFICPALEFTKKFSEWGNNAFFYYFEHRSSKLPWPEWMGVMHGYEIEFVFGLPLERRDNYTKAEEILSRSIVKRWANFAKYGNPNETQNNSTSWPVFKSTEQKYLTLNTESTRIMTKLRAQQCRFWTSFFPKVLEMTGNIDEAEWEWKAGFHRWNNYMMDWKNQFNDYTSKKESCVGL

CC(C)(C)c1cc(/C=C/C(=O)NCCC2CCN(Cc3ccccc3F)CC2)cc(C(C)(C)C)c1O
Flu intensity [1]: 251576
Activity [2]: Non-Toxic
Activity [3]: Non-Toxic
Flu intensity [4]: 347633
Activity [5]: 1.6%
inhibition [6]: 38.4%
Activity [7]: Dose-dependent effect
Activity [8]: 5.7%
Activity [9]: Non-Toxic
Ki [10]: 1400 nM
IC50 [11]: 60200 nM
Activity [12]: 2.5%
Flu intensity [13]: 390948
inhibition [14]: Active
Activity [15]: 0.3%
Activity [16]: Non-Toxic
Activity [17]: 0.2%
Activity [18]: Non-Toxic
half-life [19]: 1.49 h
Activity [20]: Non-Toxic
Activity [21]: Non-Toxic
Activity [22]: 0.3%
IC50 [23]: 75 nM

From ChEMBL document CHEMBL4270597, “Donepezil-butylated hydroxytoluene (BHT) hybrids as Anti-Alzheimer's disease agents with cholinergic, antioxidant, and neuroprotective properties” (Eur J Med Chem, 2018)
